From the supplement of paper PMC10883282

Key:
Assay in all cases: relative viability vs DMSO control (72 h) (fraction); higher = more viable cells
KHOS-NP = system: KHOS-NP
Method in brief: (§1)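 Sarcoma cell lines were grown in 384-well plates seeded toward 80–90% confluence and exposed 24 h later to serially diluted compound. After 72 h at 37 °C and 5% CO2, with 0.1% DMSO vehicle and a 5 µM positive control on the plates, ATPLite was read. Relative viability, given as percent growth averaged over up to triplicate wells, was rescaled so that 1 is full and 0 is none.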

A204 = system: A204
Method in brief: as §1

HS729 = system: HS729
Method in brief: as §1

HT1080 = system: HT1080
Method in brief: as §1

SW1353 = system: SW1353
Method in brief: as §1

MES-SA = system: MES-SA
Method in brief: as §1

G401 = system: G401
Method in brief: as §1

SYO-1 = system: SYO-1
Method in brief: as §1

SK-LMS-1 = system: SK-LMS-1
Method in brief: as §1

SW872 = system: SW872
Method in brief: as §1

SW684 = system: SW684
Method in brief: as §1

VA-ES-BJ = system: VA-ES-BJ
Method in brief: as §1

CO[C@H]1C[C@@H]2CC[C@@H](C)[C@@](O)(O2)C(=O)C(=O)N2CCCC[C@H]2C(=O)O[C@H]([C@H](C)C[C@@H]2CC[C@@H](OCCO)[C@H](OC)C2)CC(=O)[C@H](C)/C=C(\C)[C@@H](O)[C@@H](OC)C(=O)[C@H](C)C[C@H](C)/C=C/C=C/C=C/1C [Certican]
Conditions	relative viability
A204, 0.00017 µM	0.919
A204, 0.00051 µM	0.793
A204, 0.00152 µM	0.657
A204, 0.00457 µM	0.619
A204, 0.01372 µM	0.591
A204, 0.04115 µM	0.517
A204, 0.1235 µM	0.498
A204, 0.3704 µM	0.485
A204, 1.111 µM	0.487
A204, 3.333 µM	0.45
A204, 10 µM	0.43
G401, 0.00017 µM	0.9112
G401, 0.00051 µM	0.873
G401, 0.00152 µM	0.846
G401, 0.00457 µM	0.825
G401, 0.01372 µM	0.784
G401, 0.04115 µM	0.757
G401, 0.1235 µM	0.729
G401, 0.3704 µM	0.701
G401, 1.111 µM	0.683
G401, 3.333 µM	0.668
G401, 10 µM	0.642
HS729, 0.00017 µM	0.907
HS729, 0.00051 µM	0.943
HS729, 0.00152 µM	0.896
HS729, 0.00457 µM	0.835
HS729, 0.01372 µM	0.903
HS729, 0.04115 µM	0.829
HS729, 0.1235 µM	0.828
HS729, 0.3704 µM	0.808
HS729, 1.111 µM	0.821
HS729, 3.333 µM	0.828
HS729, 10 µM	0.891
HT1080, 0.00017 µM	1.04
HT1080, 0.00051 µM	1.04
HT1080, 0.00152 µM	1.09
HT1080, 0.00457 µM	1.09
HT1080, 0.01372 µM	1.08
HT1080, 0.04115 µM	0.985
HT1080, 0.1235 µM	0.998
HT1080, 0.3704 µM	1.02
HT1080, 1.111 µM	1.01
HT1080, 3.333 µM	1.01
HT1080, 10 µM	0.922
KHOS-NP, 0.00017 µM	1.05
KHOS-NP, 0.00051 µM	1.07
KHOS-NP, 0.00152 µM	1.07
KHOS-NP, 0.00457 µM	1.05
KHOS-NP, 0.01372 µM	1.03
KHOS-NP, 0.04115 µM	1
KHOS-NP, 0.1235 µM	1.02
KHOS-NP, 0.3704 µM	1.04
KHOS-NP, 1.111 µM	1.03
KHOS-NP, 3.333 µM	1.02
KHOS-NP, 10 µM	0.824
MES-SA, 0.00017 µM	0.862
MES-SA, 0.00051 µM	0.803
MES-SA, 0.00152 µM	0.608
MES-SA, 0.00457 µM	0.489
MES-SA, 0.01372 µM	0.422
MES-SA, 0.04115 µM	0.398
MES-SA, 0.1235 µM	0.378
MES-SA, 0.3704 µM	0.373
MES-SA, 1.111 µM	0.377
MES-SA, 3.333 µM	0.358
MES-SA, 10 µM	0.332
SK-LMS-1, 0.00017 µM	1
SK-LMS-1, 0.00051 µM	0.894
SK-LMS-1, 0.00152 µM	0.759
SK-LMS-1, 0.00457 µM	0.661
SK-LMS-1, 0.01372 µM	0.631
SK-LMS-1, 0.04115 µM	0.571
SK-LMS-1, 0.1235 µM	0.549
SK-LMS-1, 0.3704 µM	0.572
SK-LMS-1, 1.111 µM	0.564
SK-LMS-1, 3.333 µM	0.5489
SK-LMS-1, 10 µM	0.512
SW684, 0.00017 µM	1.08
SW684, 0.00051 µM	1.125
SW684, 0.00152 µM	1.069
SW684, 0.00457 µM	1.03
SW684, 0.01372 µM	0.914
SW684, 0.04115 µM	0.829
SW684, 0.1235 µM	0.844
SW684, 0.3704 µM	0.813
SW684, 1.111 µM	0.83
SW684, 3.333 µM	0.872
SW684, 10 µM	0.807
SW872, 0.00017 µM	0.922
SW872, 0.00051 µM	0.774
SW872, 0.00152 µM	0.6659
SW872, 0.00457 µM	0.645
SW872, 0.01372 µM	0.611
SW872, 0.04115 µM	0.592
SW872, 0.1235 µM	0.574
SW872, 0.3704 µM	0.561
SW872, 1.111 µM	0.567
SW872, 3.333 µM	0.584
SW872, 10 µM	0.584
SW1353, 0.00017 µM	0.915
SW1353, 0.00051 µM	0.875
SW1353, 0.00152 µM	0.855
SW1353, 0.00457 µM	0.772
SW1353, 0.01372 µM	0.76
SW1353, 0.04115 µM	0.746
SW1353, 0.1235 µM	0.708
SW1353, 0.3704 µM	0.71
SW1353, 1.111 µM	0.696
SW1353, 3.333 µM	0.677
SW1353, 10 µM	0.6966
SYO-1, 0.00017 µM	0.904
SYO-1, 0.00051 µM	0.876
SYO-1, 0.00152 µM	0.852
SYO-1, 0.00457 µM	0.84
SYO-1, 0.01372 µM	0.808
SYO-1, 0.04115 µM	0.788
SYO-1, 0.1235 µM	0.755
SYO-1, 0.3704 µM	0.755
SYO-1, 1.111 µM	0.729
SYO-1, 3.333 µM	0.738
SYO-1, 10 µM	0.742
VA-ES-BJ, 0.00017 µM	0.934
VA-ES-BJ, 0.00051 µM	0.855
VA-ES-BJ, 0.00152 µM	0.643
VA-ES-BJ, 0.00457 µM	0.604
VA-ES-BJ, 0.01372 µM	0.529
VA-ES-BJ, 0.04115 µM	0.494
VA-ES-BJ, 0.1235 µM	0.482
VA-ES-BJ, 0.3704 µM	0.478
VA-ES-BJ, 1.111 µM	0.468
VA-ES-BJ, 3.333 µM	0.47
VA-ES-BJ, 10 µM	0.46
